Assay results from patent US4293483A, “Derivatives of A-30912A nucleus” (priority 1980, dated 1981).
“And” between values parts separate entries of the source, which are not always exact repeats. Equal values may be shown once. Read-outs that look alike come from different tables or passages of the source. Numbered stars: 1 amine (or outer) side, 2 acyl side, 3 side chain; on linkers, the order of the positions; unused ones are H or OH. Bridge positions count the residues as written; N and C are the ends. Square brackets hold non-standard residues; d marks the D form. Peptide text beside a SMILES is read from it. * marks the point of attachment. Orn(4R-OH,5R-OH) = O=C([C@H](C[C@@H](O)[C@@H](O)N[*:3])N[*:1])[*:2]; hTyr(3S-OH,4S-OH) = N[C@H](C(=O)O)[C@H](O)[C@@H](O)c1ccc(O)cc1; Pro(3S-OH,4S-Me) = C[C@H]1CN[C@H](C(=O)O)[C@H]1O; X1 = O=C(c1cc(I)c(N[*:1])c(I)c1)[*:2]; X5 = O=C(c1cc(Cl)cc(N[*:1])c1Cl)[*:2]; X6 = O=C(C=Cc1ccc(N[*:1])cc1)[*:2]; Palmitoyl = CCCCCCCCCCCCCCCC(=O)*; Hyp = O=C(O)[C@@H]1C[C@@H](O)CN1; X2 = O=C(Cc1ccc(N[*:1])cc1)[*:2]; Myristoyl = CCCCCCCCCCCCCC(=O)*; X3 = O=C(c1cccnc1N[*:1])[*:2]; Lauroyl = CCCCCCCCCCCC(=O)*; 4Abz = Nc1ccc(C(=O)O)cc1

Assays:
Candida albicans A-26 [1] = assay: Agar plate disc diffusion test, MIC per disc; assay type: cell-based; details: 0.01M sodium borate, pH 7.5, 24 hours at 30° C.
Description: (§1) In Table 5, activity is measured by the minimal inhibitory concentration (MIC) of the substance (μg/disc) required to inhibit growth of the test organism.
(§2) *Compounds were suspended in 0.01M sodium borate solution, pH 7.5.
(§3) compounds were tested at 20 μg/disc at top level and at twofold
(§4) dilutions until end points were reached.

[2] = test system: Trychophyton mentagrophytes #6; assay: Agar plate disc diffusion test, MIC per disc; assay type: cell-based; details: 0.01M sodium borate, pH 7.5, 24 hours at 30° C.
Description: as §1, §2, §3, §4

Neurospora Crassa 846 = assay: Agar plate disc diffusion test, zone of inhibition; assay type: cell-based; details: Neurospora crassa, 1 mg/ml, 7 mm disc, * measurable zone of inhibition with regrowth of organism around disc
Description: (§5) ^(a) Compounds were tested as suspension in methanol.
(§6) were tested at a concentration of 1 mg/ml by a dipping 7mm disc into the
(§7) suspension and placing it on the agar surface. Incubation: 24-48 hours at

[3] = Blood levels after oral administration in mice; details: for concentration at 4 h: mouse, po, 416 mg/kg
Description: (§8) In this test, mice are gavaged with a dose of 416 mg/kg of the test compound suspended in 33% PEG 400-water. At time intervals, blood samples are taken from the orbital sinus and are assayed for antibiotic activity as follows: A 7 mm. disc containing 20 μl of whole blood is placed on agar seeded with Aspergillus montevidensis A35137. After 40 hours incubation at 30° C. zones of inhibition from the blood samples are compared to a standard obtained from the test compound, and the amount of compound in the blood sample is calculated.

[4] = test system: Saccharomyces pastorianus X-52; assay: Agar plate disc diffusion test, zone of inhibition; assay type: cell-based; details: Saccharomyces pastorianus, X52, 48 h, 1 mg/ml suspension in methanol, 7 mm disc, 24-48 hours at 25-37° C.
Description: as §5, §6, §7

[5] = test system: Trichophyton mentagrophytes; assay: Agar plate disc diffusion test, zone of inhibition; assay type: cell-based; details: 7 mm disc
Description: as §5, §6, §7

Candida albicans A-26 [6] = assay: Agar plate disc diffusion test, zone of inhibition; assay type: cell-based; details: 7 mm disc; for Size of Zone of Inhibition: 1 mg/ml suspension in methanol, 24-48 hours at 25-37° C., no regrowth mark
Description: as §5, §6, §7

Candida albicans A-26 [7] = assay: Therapeutic activity against Candida albicans A-26 infection in mice; assay type: in vivo; details: A26, sc
Description: The results of in vivo tests to evaluate the effectiveness of the compound of Examples 61-81, 86 and 88 against an infection caused by Candida albicans A-26 in mice are given in Table 7, where activity is measured by the ED50 value (the dose in mg/kg. required to cure 50% of the test animals). Where an ED50 value was not obtained, activity is indicated by the lowest dose at which a significant anti-fungal effect is observed. In this test, groups of male albino mice (specific pathogen free), weighing 18 to 20 grams, are infected intravenously with Candida albicans A-26. The animals are X-irradiated 24 hours prior to infection at about 50 roentgens per minute for 8 minutes (400 total dose) to reduce immune responses to the infecting organism. At 0, 4, and 24 hours post infection each group of mice is given graded doses subcutaneously of the test compound as a suspension in 33% polyethylene glycol-water. The day of death for each animal is recorded.
*Dosage Schedule: 40, 20, 15, and 10 mg/kg. Dosages given 0, 4, and 24
hours post injection as suspension of test compound in 30% PEGH2 O.
Number of mice receiving test compounds at each dosage level: 6 mice per
group. Number of mice in control (untreated) group: 10 mice per group.
**As measured by increase in survival time of treated animals versus
control, calculated by method of Reed V. Mueuch, American J. Hygiene, 493

in vivo = details: mouse, po, 416 mg/kg
Description: as §8

[8] = mouse, in vivo, 416 mg/kg, 240 min
Description: as §8

[9] = CRASSA846, Neurospora Crassa 846, read-out: Size of Zone of Inhibition (*)
[10] = Saccharomyces pastorianus X-52, read-out: Size of Zone of Inhibition
[11] = 1 mg/ml, * measurable zone of inhibition with regrowth of organism around disc, read-out: Size of Zone of Inhibition (*)
[12] = read-out: Lowest Active Dose, subcutaneous at 0, 4 and 24 hours post infection, lowest dose with significant anti-fungal effect
[13] = subcutaneous at 0, 4 and 24 hours post infection, dose to cure 50% of test animals, by increase in survival time, read-out: ED50
[14] = subcutaneous at 0, 4 and 24 hours post infection, lowest dose with significant anti-fungal effect, read-out: Lowest Active Dose

concentration at 4 h (in vivo)	Blood Levels [8]	SMILES	MIC (Candida albicans A-26 [1])	MIC [2]	zone of inhibition at 1000 µg/mL (Neurospora Crassa 846; [9])	concentration at 4 h ([3]; blood)	zone of inhibition at 1000 µg/mL [4, 10]	zone of inhibition at 1000 µg/mL [5, 11]	Size of Zone of Inhibition (Candida albicans A-26 [6])	ED50 (Candida albicans A-26 [7])	minimal effective dose (Candida albicans A-26 [7]; [12])	zone of inhibition at 1000 µg/mL ([5]; 48 h, 1 mg/ml suspension in methanol, 24-48 hours at 25-37° C., no regrowth mark, read-out: Size of Zone of Inhibition)	ED50 (Candida albicans A-26 [7]; [13])	minimal effective dose (Candida albicans A-26 [7]; [14])	Size of Zone of Inhibition (*) (Candida albicans A-26 [6]; 1 mg/ml, * measurable zone of inhibition with regrowth of organism around disc)	zone of inhibition at 1000 µg/mL (Neurospora Crassa 846; CRASSA846, read-out: Size of Zone of Inhibition (*), Neurospora Crassa 846)	concentration at 4 h ([3]; in vivo)	zone of inhibition at 1000 µg/mL ([4]; read-out: Size of Zone of Inhibition, Saccharomyces pastorianus X-52)	Blood Levels ([3]; mice, 416 mg/kg by gavage in 33% PEG 400-water, four hours after administration, bioassay vs. Aspergillus montevidensis A35137)
		CCCCCCCCCCCC(=O)Nc1cc(Cl)cc(C(=O)N[C@H]2C[C@@H](O)[C@@H](O)NC(=O)[C@@H]3[C@@H](O)[C@@H](C)CN3C(=O)[C@H]([C@@H](C)O)NC(=O)[C@H]([C@H](O)[C@@H](O)c3ccc(O)cc3)NC(=O)[C@@H]3C[C@@H](O)CN3C(=O)[C@H]([C@@H](C)O)NC2=O)c1Cl [Example 67] (Lauroyl-[X5][Orn(4R-OH,5R-OH)]T[Hyp][hTyr(3S-OH,4S-OH)]T[Pro(3S-OH,4S-Me)]; lactam 2-C)	0.625 μg/disc	< 0.039 μg/disc	35 mm	530 ng/mL	19 mm	44 mm	27 mm	14 mg/kg	10 mg/kg								
340 ng/mL		CCCCCCCCCCCC(=O)Nc1c(I)cc(C(=O)N[C@H]2C[C@@H](O)[C@@H](O)NC(=O)[C@@H]3[C@@H](O)[C@@H](C)CN3C(=O)[C@H]([C@@H](C)O)NC(=O)[C@H]([C@H](O)[C@@H](O)c3ccc(O)cc3)NC(=O)[C@@H]3C[C@@H](O)CN3C(=O)[C@H]([C@@H](C)O)NC2=O)cc1I [Example 68] (Lauroyl-[X1][Orn(4R-OH,5R-OH)]T[Hyp][hTyr(3S-OH,4S-OH)]T[Pro(3S-OH,4S-Me)]; lactam 2-C)	1.25 μg/disc	0.078 μg/disc	30 mm		17 mm		25 mm			60 mm	> 40 mg/kg	40 mg/kg					
340 ng/mL		CCCCCCCCCCCC(=O)Nc1ccc(CC(=O)N[C@H]2C[C@@H](O)[C@@H](O)NC(=O)[C@@H]3[C@@H](O)[C@@H](C)CN3C(=O)[C@H]([C@@H](C)O)NC(=O)[C@H]([C@H](O)[C@@H](O)c3ccc(O)cc3)NC(=O)[C@@H]3C[C@@H](O)CN3C(=O)[C@H]([C@@H](C)O)NC2=O)cc1 [Example 72] (Lauroyl-[X2][Orn(4R-OH,5R-OH)]T[Hyp][hTyr(3S-OH,4S-OH)]T[Pro(3S-OH,4S-Me)]; lactam 2-C)	2.5 μg/disc	0.078 μg/disc	30 mm		20 mm	55 mm	19 mm				> 40 mg/kg	40 mg/kg					
1310 ng/mL		CCCCCCCCCCCC(=O)Nc1ccc(C=CC(=O)N[C@H]2C[C@@H](O)[C@@H](O)NC(=O)[C@@H]3[C@@H](O)[C@@H](C)CN3C(=O)[C@H]([C@@H](C)O)NC(=O)[C@H]([C@H](O)[C@@H](O)c3ccc(O)cc3)NC(=O)[C@@H]3C[C@@H](O)CN3C(=O)[C@H]([C@@H](C)O)NC2=O)cc1 [Example 73] (Lauroyl-[X6][Orn(4R-OH,5R-OH)]T[Hyp][hTyr(3S-OH,4S-OH)]T[Pro(3S-OH,4S-Me)]; lactam 2-C)	1.25 μg/disc	< 0.039 μg/disc	29 mm		17 mm	24 mm					24 mg/kg	20 mg/kg	60 mm				
		CCCCCCCCCCCC(=O)Nc1ccc(C(=O)NCC(=O)N[C@H]2C[C@@H](O)[C@@H](O)NC(=O)[C@@H]3[C@@H](O)[C@@H](C)CN3C(=O)[C@H]([C@@H](C)O)NC(=O)[C@H]([C@H](O)[C@@H](O)c3ccc(O)cc3)NC(=O)[C@@H]3C[C@@H](O)CN3C(=O)[C@H]([C@@H](C)O)NC2=O)cc1 [Example 74] ({Lauroyl-4Abz}-G[Orn(4R-OH,5R-OH)]T[Hyp][hTyr(3S-OH,4S-OH)]T[Pro(3S-OH,4S-Me)]; lactam 2-C)	10 μg/disc	0.078 μg/disc					15 mm	> 40 mg/kg	> 40 mg/kg					28 mm	640 ng/mL	13 mm	
	0 ng/mL	CCCCCCCCCCCC(=O)Nc1ncccc1C(=O)N[C@H]1C[C@@H](O)[C@@H](O)NC(=O)[C@@H]2[C@@H](O)[C@@H](C)CN2C(=O)[C@H]([C@@H](C)O)NC(=O)[C@H]([C@H](O)[C@@H](O)c2ccc(O)cc2)NC(=O)[C@@H]2C[C@@H](O)CN2C(=O)[C@H]([C@@H](C)O)NC1=O [Example 75] (Lauroyl-[X3][Orn(4R-OH,5R-OH)]T[Hyp][hTyr(3S-OH,4S-OH)]T[Pro(3S-OH,4S-Me)]; lactam 2-C)	2.5 μg/disc	0.078 μg/disc	30 mm		14 mm	54 mm	24 mm				> 40 mg/kg	> 40 mg/kg					
		CC(=O)Nc1ccc(C(=O)N[C@H]2C[C@@H](O)[C@@H](O)NC(=O)[C@@H]3[C@@H](O)[C@@H](C)CN3C(=O)[C@H]([C@@H](C)O)NC(=O)[C@H]([C@H](O)[C@@H](O)c3ccc(O)cc3)NC(=O)[C@@H]3C[C@@H](O)CN3C(=O)[C@H]([C@@H](C)O)NC2=O)cc1 [Example 77] (Ac-[4Abz][Orn(4R-OH,5R-OH)]T[Hyp][hTyr(3S-OH,4S-OH)]T[Pro(3S-OH,4S-Me)]; lactam 2-C)	> 20 μg/disc and 40 μg/disc	0.312 μg/disc	24 mm		17 mm	51 mm	24 mm	> 40 mg/kg	> 40 mg/kg								0 ng/mL
		CCCCCCCCCCCCCC(=O)Nc1ccc(C(=O)N[C@H]2C[C@@H](O)[C@@H](O)NC(=O)[C@@H]3[C@@H](O)[C@@H](C)CN3C(=O)[C@H]([C@@H](C)O)NC(=O)[C@H]([C@H](O)[C@@H](O)c3ccc(O)cc3)NC(=O)[C@@H]3C[C@@H](O)CN3C(=O)[C@H]([C@@H](C)O)NC2=O)cc1 [Example 80] ({Myristoyl-4Abz}-[Orn(4R-OH,5R-OH)]T[Hyp][hTyr(3S-OH,4S-OH)]T[Pro(3S-OH,4S-Me)]; lactam 1-C)	1.25 μg/disc	< 0.039 μg/disc		6500 ng/mL	17 mm		22 mm	11 mg/kg	2.5 mg/kg								
		CCCCCCCCCCCCCCCC(=O)Nc1ccc(C(=O)N[C@H]2C[C@@H](O)[C@@H](O)NC(=O)[C@@H]3[C@@H](O)[C@@H](C)CN3C(=O)[C@H]([C@@H](C)O)NC(=O)[C@H]([C@H](O)[C@@H](O)c3ccc(O)cc3)NC(=O)[C@@H]3C[C@@H](O)CN3C(=O)[C@H]([C@@H](C)O)NC2=O)cc1 [Example 81] ({Palmitoyl-4Abz}-[Orn(4R-OH,5R-OH)]T[Hyp][hTyr(3S-OH,4S-OH)]T[Pro(3S-OH,4S-Me)]; lactam 1-C)	0.312 μg/disc	< 0.039 μg/disc		36000 ng/mL	24 mm		25 mm	7 mg/kg	5 mg/kg								
